≈ marks a conversion by molar mass, not a printed value. Calls of active or inactive are those of the source. No cut-off for these calls is given here.
Experiments:
Staphylococcus aureus [1] = experiment: Antibacterial activity against methicillin-sensitive Staphylococcus aureus 209P after 24 hrs by liquid dilution method; assay type: functional
Staphylococcus aureus [2] = experiment: Antibacterial activity against methicillin-resistant Staphylococcus aureus isolate OM481 after 24 hrs by liquid dilution method; assay type: functional; details: isolate OM481, 24 h
Staphylococcus aureus [3] = experiment: Antibacterial activity against methicillin-resistant Staphylococcus aureus isolate OM505 after 24 hrs by liquid dilution method; assay type: functional; details: isolate OM505, 24 h
Pseudomonas aeruginosa [4] = experiment: Antibacterial activity against Pseudomonas aeruginosa PAO1 after 24 hrs by liquid dilution method; assay type: functional
Pseudomonas aeruginosa [5] = experiment: Antibacterial activity against Pseudomonas aeruginosa PAO1 assessed as inhibition of green pigment formation; assay type: functional
Albumin [6] = biological target: T1, Albumin (Bos taurus, UniProt P02769); experiment: Binding affinity to bovine serum albumin assessed as retention time for compound-protein complex formation at 0.5 mg/ml by size exclusion chromatographic method (reference value: 16 mins); assay type: ADME; details: cattle
Albumin [7] = biological target: T1, Albumin; experiment: Binding affinity to bovine serum albumin by SDS-PAGE analysis; assay type: ADME; details: cattle, isolated protein
Staphylococcus aureus [8] = experiment: Antibacterial activity against methicillin-sensitive Staphylococcus aureus 209P; assay type: functional
Staphylococcus aureus [9] = experiment: Antibacterial activity against methicillin-resistant Staphylococcus aureus isolate OM481; assay type: functional
Staphylococcus aureus [10] = experiment: Antibacterial activity against methicillin-resistant Staphylococcus aureus isolate OM505; assay type: functional

T1 sequence (P02769 whole entry): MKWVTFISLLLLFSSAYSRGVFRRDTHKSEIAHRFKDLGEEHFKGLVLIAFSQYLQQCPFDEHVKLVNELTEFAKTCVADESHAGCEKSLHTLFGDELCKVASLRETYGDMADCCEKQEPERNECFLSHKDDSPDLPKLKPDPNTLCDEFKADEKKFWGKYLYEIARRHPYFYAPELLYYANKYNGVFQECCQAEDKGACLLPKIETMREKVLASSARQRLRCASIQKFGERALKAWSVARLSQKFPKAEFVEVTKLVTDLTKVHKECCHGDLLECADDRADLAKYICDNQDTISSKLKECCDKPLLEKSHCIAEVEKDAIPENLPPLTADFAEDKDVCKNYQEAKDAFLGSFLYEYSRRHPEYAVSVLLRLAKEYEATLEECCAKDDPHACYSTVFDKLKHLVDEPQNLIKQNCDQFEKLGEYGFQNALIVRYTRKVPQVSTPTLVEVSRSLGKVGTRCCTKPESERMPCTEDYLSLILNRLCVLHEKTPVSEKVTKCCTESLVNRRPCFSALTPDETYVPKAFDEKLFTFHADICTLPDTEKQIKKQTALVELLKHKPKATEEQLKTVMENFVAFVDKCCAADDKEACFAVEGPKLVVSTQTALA

Compound	MIC (Staphylococcus aureus [1]) [µM]	MIC (Staphylococcus aureus [2]) [µM]	MIC (Staphylococcus aureus [3]) [µM]	MIC (Pseudomonas aeruginosa [4]; PAO1, 24 h) [µM]	MIC (Pseudomonas aeruginosa [5]) [µM]	Retention time (Albumin [6]) [min]	Activity (Albumin [7])	inhibition (Pseudomonas aeruginosa [5])	other results
O=C(O[C@@H]1O[C@@H]2COC(=O)c3cc(O)c(O)c(O)c3-c3c(cc(Oc4c(C(=O)O)cc(O)c(O)c4O)c(O)c3O)C(=O)O[C@H]2[C@H](OC(=O)c2cc(O)c(O)c(O)c2)[C@H]1OC(=O)c1cc(O)c(O)c(O)c1)c1cc(O)c(O)c(O)c1	58 (≈ 64.2 µg/mL)	29 (≈ 32.1 µg/mL)	58 (≈ 64.2 µg/mL)	> 926	29 (≈ 32.1 µg/mL)	9 to 12	Active	–	–
O=C1OC[C@H]2O[C@H](O)[C@@H]3OC(=O)c4cc(O)c(O)c(O)c4-c4c(cc(O)c(O)c4O)C(=O)O[C@H]3[C@@H]2OC(=O)c2cc(O)c(O)c(O)c2-c2c1cc(O)c(O)c2O	–	–	–	–	–	–	–	Active	–
O=C(O[C@@H]1COC(=O)c2cc(O)c(O)c(O)c2-c2c(cc(O)c(O)c2O)C(=O)O[C@H]1[C@@H]1OC(=O)c2cc(O)c(O)c(O)c2-c2c(O)c(O)c(O)c3c2C(=O)O[C@H]1[C@H]3O)c1cc(O)c(O)c(O)c1	–	–	–	–	–	–	–	Active	–
O=C(O[C@H]1[C@@H]2OC(=O)c3cc(Oc4c(C(=O)O)cc(O)c(O)c4O)c(O)c(O)c3-c3c(cc(O)c(O)c3O)C(=O)OC[C@H]2OC(O)[C@@H]1OC(=O)c1cc(O)c(O)c(O)c1)c1cc(O)c(O)c(O)c1 (some centres undefined)	67 (≈ 64 µg/mL)	34 (≈ 32.5 µg/mL)	67 (≈ 64 µg/mL)	> 1070	34 (≈ 32.5 µg/mL)	9 to 12	Active	–	–
O=C(O[C@@H]1O[C@@H]2COC(=O)c3cc(O)c(O)c(O)c3-c3c(cc(Oc4c(C(=O)O[C@@H]5O[C@@H]6COC(=O)c7cc(O)c(O)c(O)c7-c7c(cc(Oc8c(C(=O)O[C@@H]9O[C@@H]%10COC(=O)c%11cc(O)c(O)c(O)c%11-c%11c(cc(O)c(O)c%11O)C(=O)O[C@H]%10[C@H](OC(=O)c%10cc(O)c(O)c(O)c%10)[C@H]9OC(=O)c9cc(O)c(O)c(O)c9)cc(O)c(O)c8O)c(O)c7O)C(=O)O[C@H]6[C@H](OC(=O)c6cc(O)c(O)c(O)c6)[C@H]5OC(=O)c5cc(O)c(O)c(O)c5)cc(O)c(O)c4O)c(O)c3O)C(=O)O[C@H]2[C@H](OC(=O)c2cc(O)c(O)c(O)c2)[C@H]1OC(=O)c1cc(O)c(O)c(O)c1)c1cc(O)c(O)c(O)c1	23 (≈ 64.7 µg/mL)	91 (≈ 256 µg/mL)	91 (≈ 256 µg/mL)	> 364	23 (≈ 64.7 µg/mL)	9 to 12	Active	–	–
Cc1onc(-c2ccccc2)c1C(=O)N[C@@H]1C(=O)N2[C@@H]1SC(C)(C)[C@@H]2C(=O)O [OXACILLIN]	< 0.6	638 (≈ 256 µg/mL)	319 (≈ 128 µg/mL)	–	–	–	–	–	–
NCC[C@H](O)C(=O)N[C@@H]1C[C@H](N)[C@@H](O[C@H]2O[C@H](CN)[C@@H](O)[C@H](O)[C@H]2O)[C@H](O)[C@H]1O[C@H]1O[C@H](CO)[C@@H](O)[C@H](N)[C@H]1O [AMIKACIN]	–	–	–	14 (≈ 8.2 µg/mL)	–	–	–	–	–
O=C(O[C@@H]1O[C@@H]2COC(=O)c3cc(O)c(O)c(O)c3-c3c(cc(Oc4c(C(=O)O[C@@H]5O[C@@H]6COC(=O)c7cc(O)c(O)c(O)c7-c7c(cc(O)c(O)c7O)C(=O)O[C@H]6[C@H](OC(=O)c6cc(O)c(O)c(O)c6)[C@H]5OC(=O)c5cc(O)c(O)c(O)c5)cc(O)c(O)c4O)c(O)c3O)C(=O)O[C@H]2[C@H](OC(=O)c2cc(O)c(O)c(O)c2)[C@H]1OC(=O)c1cc(O)c(O)c(O)c1)c1cc(O)c(O)c(O)c1	34 (≈ 63.8 µg/mL)	34 (≈ 63.8 µg/mL)	68 (≈ 128 µg/mL)	> 546	34 (≈ 63.8 µg/mL)	9 to 12	Active	–	–
GENTAMICIN	–	–	–	–	–	–	–	–	MIC (Pseudomonas aeruginosa [4]): 17 µM
O=C(OC[C@H]1O[C@@H](OC(=O)c2cc(O)c(O)c(O)c2)[C@H](OC(=O)c2cc(O)c(O)c(O)c2)[C@@H](OC(=O)c2cc(O)c(O)c(O)c2)[C@@H]1OC(=O)c1cc(O)c(O)c(O)c1)c1cc(O)c(O)c(O)c1 [PENTAGALLOYL GLUCOSE]	–	–	–	–	–	–	–	Active	MIC (Staphylococcus aureus [8]): 68 µM (≈ 64 µg/mL); MIC (Staphylococcus aureus [9]): 68 µM (≈ 64 µg/mL); MIC (Staphylococcus aureus [10]): 68 µM (≈ 64 µg/mL)

From ChEMBL document CHEMBL4130481, “Structures and Antibacterial Properties of Isorugosins H-J, Oligomeric Ellagitannins from Liquidambar formosana with Characteristic Bridging Groups between Sugar Moieties” (J Nat Prod, 2017)
